Laboratory results: patent publication US20140193871A1, “METHOD FOR ENHANCING CARBON BIOFIXATION” (Industrial Technology Research Institute, priority 2013, published 2014)

Assays:
[1] = tested on: lactate permease and genes involved in the Wood-Ljungdahl pathway; test: RT-qPCR expression of lactate permease and Wood-Ljungdahl pathway genes; format: cell-based, Clostridium ljungdahlii; conditions: 2.5 g/L sodium lactate; relative to no-additive control group (FIG. 3)
Procedure: (§1) Syringes with needles were used to collect liquid samples. After measuring the OD600, the liquid samples were centrifuged at 12,000 rpm for 10 minutes. The resulting cell pellet was stored in 700 μl TRIzol solution for later RNA extraction and gene expression analysis. The supernatant was analyzed with an Agilent 1100 series high-performance liquid chromatography (HPLC) with Aminex HPX-87 H (300 mm×7.8 mm) column.
Real-time quantitative polymerase chain reaction (RT-qPCR) was used to quantify the expression of certain genes listed in Table 2.

[2] = tested on: Clostridium ljungdahlii BCRC 17797; test: HPLC analysis of culture medium: acetic acid produced and lactic acid consumed during CO2 fermentation; format: cell-based; conditions: for Acetate production: after 96 hours of culture; for carbon atoms contained in acetic acid produced / Acetic Acid ΔC (Ct=144 h − Ct=0), acetic acid produced: 144 hours of culture; for Acetic Acid ΔC (Ct=144 h − Ct=0), acetic acid produced / Acetic Acid Ct=0 h / Acetic Acid Ct=144 h: 2.5 g/L sodium lactate or 1.52 g/L sodium chloride in mPETC; for Acetic Acid Ct=0 h: t=0; for Acetic Acid Ct=144 h: t=144 hours
Procedure: (§2) Clostridium ljungdahlii was first cultured anaerobically with mPETC medium containing 10 g/L of fructose at 37° C. in one of the air-tight bottles mentioned above. When OD600 reached a value ranging from 1 to 1.5, the culture medium was centrifuged at 3500 rpm for 210 seconds. The resulting cell pellet was resuspended with mPETC without fructose and then further cultured anaerobically at 37° C. for one hour to remove any residual sugar substrates.
(§3) 45 ml of mPETC culture medium was added to one of the crimp-top serum bottles mentioned above, which was then covered with an aluminum foil and autoclaved for 15 minutes at 121° C., 15 psi. After cooling, the medium-containing bottle was moved into an anaerobic chamber, and 50 μl of cysteine-HCl (50% w/v) was added to the medium to remove any dissolved oxygen.
(§4) For an experimental group, sodium lactate solution was further added to the culture medium to obtain a lactate concentration of 2.5 g/L (about 0.022 M).
(§5) For a sodium ion control group, NaCl solution was added to the culture medium to obtain a NaCl concentration of 1.52 g/L (about 0.026 M). This control group was designed to test whether the sodium ions present in the sodium lactate play any role in carbon dioxide fixation. Thus, the same molar amount of sodium ion as the experimental group was added.
(§6) Each of the serum bottles containing 45 ml of mPETC culture medium was then inoculated with 5 ml of Clostridium ljungdahlii culture that had residual sugar removed. A sample taken at this point was labeled as t=0 sample. The bottles were then sealed with rubber stoppers and further covered with aluminum crimp caps to ensure an air-tight closure.
The headspaces of the air-tight bottles were first purged with a gas mixture containing 80% N2 and 20% of CO2 under a pressure of 10 psi. Needles were inserted into the rubber stops to allow the gas to escape from the bottles. After about 30 seconds of exposure to the gas mixture, an anaerobic condition filled with CO2 was obtained within the bottles.
Using needles, the headspaces of the bottles were then further purged with another gas mixture containing 80% H2 and 20% of CO2 under a pressure of 20 psi to replace the previous gas mixture. After about 30 seconds, needles were removed and the pressure within the bottles was built up to about 20 psi. The bottles were then moved to a 37° C. incubator and placed on a shaker providing a shaking speed of 100 rpm.
Every 12 hours, a needle was used to release the gas built up within the bottle, and the headspace of the bottle was purged and refreshed under the same process as described above to replenish gaseous carbon source under a stabilized pressure.
as §1
The experimental protocol as described in Example 1 was repeated, except that, besides having a no-additive control group, two experimental groups were prepared, one had 1 g/L of lactate in the culture medium and the other had 2.5 g/L of lactate in the culture medium.

[3] = tested on: Clostridium ljungdahlii BCRC 17797; test: Growth (OD600) of Clostridium ljungdahlii under CO2/H2 gas mixture; format: cell-based; conditions: for OD600 value: t=144 hours, 2.5 g/L sodium lactate or 1.52 g/L NaCl in mPETC, 80% H2/20% CO2, 37° C.
Procedure: as §2, §3, §4, §5, §6
The headspaces of the air-tight bottles were first purged with a gas mixture containing 80% N2 and 20% of CO2 under a pressure of 10 psi. Needles were inserted into the rubber stops to allow the gas to escape from the bottles. […]
Syringes with needles were used to collect liquid samples. […] The supernatant was analyzed with an Agilent 1100 series high-performance liquid chromatography (HPLC) with Aminex HPX-87 H (300 mm×7.8 mm) column.

Row | SMILES | fold increase of CooS1 [1] | fold increase of lactate permease [1] | fold increase of metF [1] | Acetate production ([2]; 1 g/L lactate in medium) | Acetate production ([2]; 2.5 g/L lactate in medium) | carbon atoms contained in acetic acid produced [2] | Acetic Acid ΔC (Ct=144 h − Ct=0), acetic acid produced [2] | amount of CO2 converted (fixed) to acetic acid, higher than control group ([2]; 144 hours, 0.191 M versus 0.166 M of control group) | carbon atoms that came from CO2 in the gas mixture (CO2 fixed to acetic acid) ([2]; 144 hours, 2.5 g/L sodium lactate, 0.213 M minus 0.022 M) | Acetic Acid Ct=0 h [2] | Acetic Acid Ct=144 h [2] | difference in growth rates between groups ([3]; experimental, sodium ion control and no-additive control groups, up to 144 hours) | OD600 value [3] | Acetic Acid ΔC (Ct=144 h − Ct=0), acetic acid produced ([2]; listed as sodium-ion control group)
1 | CC(O)C(=O)O (stereo not shown) [sodium lactate] | ~3 fold | ~11 fold | ~4 fold | 8.13 ± 1.59 g/L | 9.15 ± 0.06 g/L | about 0.213 M | 6.39 g/L | at least 15% | at least 0.191 M | 0.06 ± 0.00 g/L | 6.45 ± 0.43 g/L | no significant difference | 0.71 | 
2 | [Cl-].[Na+] [sodium chloride, reference compound] |  |  |  |  |  | about 0.166 M | 4.91 g/L |  |  | 0.06 ± 0.00 g/L | 4.97 ± 0.82 g/L |  | 0.82 | about 4.97 g/L
